This passage reports GI50 and TGI results from PubChem BioAssay (NCI).

The structures appear in SMILES notation.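 Briefly, cells in 96-well plates were exposed to five compound concentrations for 48 h, and endpoints were estimated by linear interpolation. The concentration for 50% growth inhibition is given as GI50. TGI is the concentration that stops growth completely.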 Where only a bound is given, the exact number is not on record here.

Test systems include SNB-75 CNS; NCI/ADR-RES ovarian; SF-539 CNS; OVCAR-8 ovarian; DU-145 prostate; MDA-MB-435; HCC-2998 colon; CCRF-CEM leukemia; OVCAR-4 ovarian; OVCAR-3 ovarian.
Holding throughout (assay): DTP human tumour cell line panel, 48 h

For `C[C@]12CC[C@H]3[C@@H](C[C@@H]4SC(Nc5cccc(F)c5)=N[C@@]45CC(=O)CC[C@]35C)[C@@H]1CCC2=O`, the GI50 (usually the concentration that inhibits growth by half) in the assay on SNB-75 CNS was 1520 nM; in the assay on NCI/ADR-RES ovarian, 2810 nM; in the assay with SF-539 CNS, 1340 nM; in the assay on OVCAR-8 ovarian, 2790 nM; in the assay on DU-145 prostate, 1930 nM; with MDA-MB-435, 2740 nM. Moreover, the GI50 in the assay with HCC-2998 colon is 3550 nM; in the assay on CCRF-CEM leukemia, 1900 nM; in the assay with OVCAR-4 ovarian it was 2710 nM; in the assay with OVCAR-3 ovarian, 1720 nM. In addition, the concentration for total growth inhibition (TGI) (usually the concentration at which net growth stops) was 4940 nM with SNB-75 CNS; 17200 nM in the assay on NCI/ADR-RES ovarian; 2940 nM in the assay on SF-539 CNS; 7980 nM in the assay on OVCAR-8 ovarian; 4870 nM in the assay on DU-145 prostate; 13100 nM with MDA-MB-435. The concentration for total growth inhibition (TGI) in the assay on HCC-2998 colon is 14600 nM; with CCRF-CEM leukemia it was over 100000 nM; in the assay with OVCAR-4 ovarian, over 100000 nM; in the assay on OVCAR-3 ovarian it was 3300 nM.

For the compound `O=C1c2cccc3c(N4CCN(c5ccc6c7c(cccc57)C(=O)N(CCN5CCNCC5)C6=O)CC4)ccc(c23)C(=O)N1CCN1CCNCC1`, the GI50 with SNB-75 CNS was 17400 nM; in the assay with NCI/ADR-RES ovarian, 13800 nM; in the assay on SF-539 CNS, 13000 nM; in the assay with OVCAR-8 ovarian, 10900 nM; in the assay on DU-145 prostate, 14100 nM; in the assay with MDA-MB-435 it was 13200 nM. Moreover, the GI50 was 5630 nM with HCC-2998 colon, 3090 nM in the assay on CCRF-CEM leukemia, 18300 nM in the assay with OVCAR-4 ovarian and 20300 nM in the assay on OVCAR-3 ovarian. The total growth inhibition concentration (TGI) in the assay on SNB-75 CNS was found to be 33800 nM; with NCI/ADR-RES ovarian, 32600 nM; in the assay with SF-539 CNS, 34100 nM; with OVCAR-8 ovarian it was 41500 nM; in the assay on DU-145 prostate it was 40600 nM; with MDA-MB-435, 34200 nM. Besides, the concentration for total growth inhibition (TGI) in the assay with HCC-2998 colon was determined as 20900 nM; in the assay with CCRF-CEM leukemia, 18400 nM; with OVCAR-4 ovarian, 42300 nM; in the assay with OVCAR-3 ovarian, 42100 nM.

As for `N#Cc1ccc(-n2cnc(NC(=O)[C@H]3CCN(C#N)C3)c2)cc1`, the GI50 is 519 nM with SNB-75 CNS; 2410 nM in the assay on NCI/ADR-RES ovarian; 1180 nM with SF-539 CNS; 1920 nM with OVCAR-8 ovarian; 1520 nM in the assay on DU-145 prostate; 234 nM with MDA-MB-435. The GI50 is 2280 nM in the assay with HCC-2998 colon, 1030 nM in the assay with CCRF-CEM leukemia and 1860 nM in the assay on OVCAR-4 ovarian. In addition, the TGI in the assay on SNB-75 CNS is 3740 nM; in the assay on NCI/ADR-RES ovarian, over 86800 nM; in the assay with SF-539 CNS, 5950 nM; with OVCAR-8 ovarian, over 100000 nM; in the assay on DU-145 prostate, 49400 nM; in the assay on MDA-MB-435, 18400 nM. Besides, the TGI in the assay with HCC-2998 colon is 18600 nM; with CCRF-CEM leukemia it was over 100000 nM; with OVCAR-4 ovarian, 12500 nM; with OVCAR-3 ovarian it was 4840 nM.

For the compound `Nc1cc(C(F)F)c(-c2nc(N3[C@@H]4CC[C@H]3COC4)nc(N3[C@@H]4CC[C@H]3COC4)n2)cn1`, the GI50 is 60 nM in the assay with SNB-75 CNS; 603 nM with NCI/ADR-RES ovarian; 297 nM in the assay with SF-539 CNS; 465 nM with OVCAR-8 ovarian; 426 nM in the assay with DU-145 prostate; 378 nM with MDA-MB-435. In addition, the GI50 with HCC-2998 colon is 636 nM; in the assay with CCRF-CEM leukemia, 690 nM; in the assay on OVCAR-4 ovarian it was 191 nM; in the assay on OVCAR-3 ovarian it was 435 nM. In addition, the concentration for total growth inhibition (TGI) is 793 nM in the assay with SNB-75 CNS; 39500 nM with NCI/ADR-RES ovarian; 3020 nM in the assay on SF-539 CNS; over 100000 nM in the assay on OVCAR-8 ovarian; over 100000 nM in the assay on DU-145 prostate; over 30600 nM in the assay on MDA-MB-435. The TGI in the assay with HCC-2998 colon is over 100000 nM; in the assay with CCRF-CEM leukemia, over 100000 nM; in the assay on OVCAR-4 ovarian, 2030 nM; with OVCAR-3 ovarian, over 100000 nM.

Turning to `C/C=C(/C)C(=O)OC1C=C(CO)C(=O)C(OC(=O)/C(C)=C\C)C1C(C)C` (centres undefined), the GI50 is 1400 nM in the assay on SNB-75 CNS; 1570 nM in the assay with NCI/ADR-RES ovarian; 1380 nM in the assay with SF-539 CNS; 633 nM in the assay with OVCAR-8 ovarian; 618 nM with DU-145 prostate; 950 nM in the assay with MDA-MB-435. Further, the GI50 was 1710 nM in the assay with HCC-2998 colon, 321 nM with CCRF-CEM leukemia, 1120 nM in the assay on OVCAR-4 ovarian and 480 nM in the assay with OVCAR-3 ovarian. Moreover, the TGI worked out at 2730 nM in the assay on SNB-75 CNS; 6110 nM in the assay with NCI/ADR-RES ovarian; 2690 nM in the assay with SF-539 CNS; 2210 nM in the assay with OVCAR-8 ovarian; 1950 nM with DU-145 prostate; 2330 nM in the assay on MDA-MB-435. For the same compound, the TGI was determined as 3270 nM with HCC-2998 colon, 4190 nM in the assay on CCRF-CEM leukemia, 2490 nM in the assay on OVCAR-4 ovarian and 1660 nM in the assay with OVCAR-3 ovarian.

As for `Cc1ccc(NC2=C(Cl)C(=O)c3nc(C)ccc3C2=O)cc1`, the GI50 in the assay with SNB-75 CNS was 1810 nM; in the assay with NCI/ADR-RES ovarian it was 1730 nM; in the assay with SF-539 CNS, 1670 nM; with OVCAR-8 ovarian, 1470 nM; in the assay on DU-145 prostate it was 1470 nM; in the assay with MDA-MB-435 it was 1480 nM. Besides, the GI50 is 1670 nM with HCC-2998 colon, 2650 nM in the assay with CCRF-CEM leukemia, 1280 nM in the assay on OVCAR-4 ovarian and 395 nM in the assay on OVCAR-3 ovarian. For the same compound, the total growth inhibition concentration (TGI) with SNB-75 CNS came out at 3720 nM; with NCI/ADR-RES ovarian it was 4620 nM; in the assay with SF-539 CNS, 3110 nM; in the assay on OVCAR-8 ovarian, 3140 nM; in the assay on DU-145 prostate it was 2850 nM; in the assay on MDA-MB-435, 2880 nM. The TGI in the assay with HCC-2998 colon was 3200 nM; in the assay on CCRF-CEM leukemia, over 100000 nM; with OVCAR-4 ovarian it was 2660 nM; in the assay on OVCAR-3 ovarian, 1390 nM.

Turning to `CCC(=S)N(C)O`, the TGI in the assay on SNB-75 CNS is over 95400 nM; with NCI/ADR-RES ovarian, over 100000 nM; in the assay on SF-539 CNS it was 84100 nM; with OVCAR-8 ovarian it was over 97100 nM; in the assay on DU-145 prostate, over 100000 nM; with MDA-MB-435 it was over 100000 nM. For the same compound, the total growth inhibition concentration (TGI) is over 95700 nM in the assay on HCC-2998 colon, 12300 nM with CCRF-CEM leukemia, over 100000 nM in the assay with OVCAR-4 ovarian and over 100000 nM in the assay with OVCAR-3 ovarian.

As for `O=C(O)[C@@H]1C[C@@H](O)CN1`, the total growth inhibition concentration (TGI) in the assay on SNB-75 CNS, in the assay on NCI/ADR-RES ovarian, in the assay with SF-539 CNS, in the assay on OVCAR-8 ovarian, in the assay on DU-145 prostate and with MDA-MB-435 was over 100000 nM each time. Moreover, the TGI in the assay on HCC-2998 colon, in the assay with CCRF-CEM leukemia, in the assay on OVCAR-4 ovarian and with OVCAR-3 ovarian was over 100000 nM each time.
